From paper PMC9321647, “Curcumin-Based β-Diketo Ligands for Ga^3+: Thermodynamic Investigation of Potential Metal-Based Drugs” (Pharmaceuticals, 2022)
Like-named read-outs stand apart in the source and are kept apart here. Marks after values point to notes of the source that are not given here.

Tests used:
Format in all cases: physicochemical
[1] = Kinetic stability of ligands in simulated physiological conditions (UV-Vis); details: for Stability: percentage of the residual ligand after 4 h: PBS, pH 7.4, 37 °C in darkness; for Stability ranking (residual ligand after 4 h): rank among the 7 ligands, 1 = most stable
Protocol: The chemical stability of ligands and metal complexes at the M:L 1:L molar ratio at 37 °C in darkness was evaluated by UV−Vis spectroscopy as a change in absorbance in the 250−600 nm range over an overall period of 8 h. Solutions (5.0 × 10^–5 mol L^–1) of the ligands were prepared in 0.1 mol L^–1 phosphate-buffered solution (PBS) at pH 7.4. Spectra were recorded every 30 min. All profiles were linearized as the hyperbolic function defined by Equation (2), which represents an empirical model that describes drug decomposition or release well [42]:(2) t/f%=at+b where f% is the percentage of the residual compound at time t (min) referred to the starting concentration at time zero determined by reading the absorbance at λmax.

[2] = Keto-enol/diketo tautomer amounts by 1H NMR; details: molar percentage, MeOD-d4, 298 K; for KE (%) amount of keto–enol form: for 2 includes KE form of the Z isomer (6%)
Protocol: NMR spectra were recorded by means of a Bruker Biospin FT-NMR AVANCE III HD (600 MHz) spectrometer equipped with a CryoProbe BBO H&F 5 mm in inverse detection. The nominal frequencies were 150.90 MHz for ^13C and 600.13 MHz for ^1H, respectively. For each sample, 1–5 mg were weighed and diluted up to 0.6 mL with a proper solvent in a 5 mm NMR tube; 90° pulse was calibrated for each sample, and standard NMR parameters were used to achieve quantitative results (relaxation delay, 10 s). Proton and carbon chemical shifts are given in parts per million (ppm) versus external TMS and were determined by reference to the solvent residual signals. Typical 2D homo- and heteronuclear techniques were used for assignment, i.e., ^1H,^1H COSY, ^1H,^13C HSQC, ^1H,^13C HMBC. NMR investigations of Ga^3+:L systems were performed in MeOD-d4 by adding small amounts of a Ga(NO3)3 solution (10 μL each) to 1 mM ligand solution (0.6 mL) until reaching the desired metal-to-ligand molar ratio. The complexation reaction is fast, and spectra were registered few minutes after the addition. Two-dimensional ^1H,^13C heteronuclear multiple bond correlation (HMBC) experiments (hmbcgpndqf in Bruker library) were performed via heteronuclear zero and double quantum coherence, optimized on long-range couplings (^3/4JHC = 8 Hz), with no decoupling during acquisition, and gradient pulses were used for selection. The relative percentages of the isomeric forms were estimated on the basis of the NMR data. Particularly, ^1H NMR spectra were acquired in quantitative conditions being D1 (relaxation delay) at least five times the T1 of the slowest relaxing signal of interest. The raw data were Fourier-transformed, and then the processing was performed by zero filling (SI = TD), line broadening (lb 0.3 Hz), accurate phasing and correcting the baseline. The most isolated signals were selected for integration, i.e., the vinyl protons (H-3 and H-4), and an average of the integrated area (A) of H-3 and H-4 was used for relative quantitation, according to the following equation: %Tautomeri=(A(H−3)i+(A(H−4)i)/2/∑i(A(H−3)i+(A(H−4)i)/2×100

[3] = Spectrophotometric pH titrations of ligands (protonation constants, pKa); details: for logβ011 overall protonation constant / logβ012 overall protonation constant / logβ013 overall protonation constant / logβ014 overall protonation constant: HypSpec, spectrophotometric data; for pKa: aqueous solution (methanol stock diluted in water); for prevailing charge form at physiological pH (7.4): pH 7.4, species distribution
Protocol: (§1) UV–visible spectra were recorded with a JASCO V-570 UV/Vis/NIR spectrophotometer at 298 K in the 250–600 nm spectral range employing quartz cells (1 cm optical path). To perform spectrophotometric titrations, ligands (denoted generally as L in the following) were dissolved in methanol to give a mother solution (2.50 mM), that was then diluted in water in order to obtain a final concentration of 50 μM. The metal/ligand (M:L) solutions were obtained by adding appropriate quantities of Ga(NO3)3 as methanol solutions (5–10 mM) in order to obtain the metal-to-ligand 1:1 molar ratio (L = 50 μM and V = 25 mL). For both L and M:L systems, pH (initial value of about 5) was varied by adding small amounts (<1 μL) of concentrated NaOH (4 M) up to ca. pH 11, thus to consider volume variations negligible. To evaluate the complexation ratio, constant additions of the M solution (10 µL each time, M = 10^–2 M) were dropped into the ligand solution (V = 25 mL, L = 50 μM) using a micropipette in order to reach different M:L molar ratios. A constant ionic strength (NaNO3, 0.1 M) was maintained in all experiments. Spectrophotometric investigations of iron(III) systems were performed in the same conditions; the Fe^3+ solution was freshly prepared in methanol starting from Fe(NO3)3·9H2O. The overall protonation constants (logβqr) and the overall stability constants of metal complexes (logβpqr) were evaluated from spectrophotometric data. The stability constants (βpqr), defined by the following equations:(3) pM^m++qL^l^−+rH^+⇌MpLqHr(mp−lq+r) (4) βpqr=[MpLqHr(mp−lq+r)]/[M^m+]^p·[L^l−]^q·[H^+]^r where L is the ligand in the completely dissociated form and H is proton, were refined using least-squares calculation in HypSpec. The results of least-squares calculation include the standard deviations and correlation coefficients of the refined parameters. The quantities are obtained by performing error propagation calculation from the experimental errors onto the parameters. The stability constant refinement furnishes least-squares estimates of the standard deviation, σ, of the stability constant β. The error on logβ is calculated as follows: σ(logβ) = [log(β + σ) − log(β − σ)]/2.

[4] = Spectrophotometric pH-metric titrations of Ga^3+:ligand systems (stability constants, pGa, speciation); details: for logK11 apparent formation constant (Ga^3+, M:L 1:1) / logK12 apparent formation constant (Ga^3+, M:L 1:2) / logK13 apparent formation constant (Ga^3+, M:L 1:3): estimated from logβMLH; for Prevailing Species (pH 5.5) / Prevailing Species (pH 7.4): Ga^3+ complex species; for Prevailing Species (pH 7.4): ** possible formation of gallium hydroxide species; for pGa (−log[Ga^3+]free): [Ga^3+]total = 1 μM, [L]total = 10 μM, pH 7.4, 25 °C
Protocol: as §1
Hydroxide species, such as [Ga(OH)2]^+, were taken into account for calculations. The hydrolysis constants for Ga^3+ are as follows: logβ1,1,0 = −3.93; logβ2,1,0 = −7.73; logβ3,1,0 = −12.38; logβ4,1,0 = −15.96; logβ32,13,0 = −66.3; logβ3,1,0(s) = −3.54 [43]; pGa is defined as (−log[Ga^3+]free) and is calculated at specific conditions (Ga^3+total = 1 μM, Ltotal = 10 μM, pH 7.4, 25 °C). For the calculation of the iron(III) overall stability constants, the presence of [Fe(OH)]^2+, [Fe(OH)2]^+ and [Fe(OH)3] species was taken into account.

[5] = 298 K, calculated from logβ values, * = keto–enol moiety dissociation, read-out: pKa1
[6] = 298 K, calculated from logβ values, * = keto–enol moiety dissociation, read-out: pKa2
[7] = 298 K, calculated from logβ values, * = keto–enol moiety dissociation, read-out: pKa3
[8] = 298 K, calculated from logβ values, read-out: pKa4
[9] = 298 K, calculated from logβ values, * = keto–enol moiety dissociation

Row | Compound | Stability: percentage of the residual ligand after 4 h [1] | Stability ranking (residual ligand after 4 h) [1] | KK (%) amount of diketo form [2] | KE (%) amount of keto–enol form [2] | logβ011 overall protonation constant ([3]; 298 K) | logβ012 overall protonation constant ([3]; 298 K) | logβ013 overall protonation constant ([3]; 298 K) | logβ014 overall protonation constant ([3]; 298 K) | pKa [3, 5] | pKa [3, 6] | pKa [3, 7] | pKa [3, 8] | prevailing charge form at physiological pH (7.4) [3] | log β 112 overall stability constant (Ga^3+) ([4]; 298 K, HypSpec) | log β 113 overall stability constant (Ga^3+) ([4]; 298 K, HypSpec) | logK11 apparent formation constant (Ga^3+, M:L 1:1) ([4]; 298 K) | Prevailing Species (pH 5.5) [4] | Prevailing Species (pH 7.4) [4] | pGa (−log[Ga^3+]free) [4] | log β 110 overall stability constant (Ga^3+) ([4]; 298 K, HypSpec) | also measured
1 | COc1cc(/C=C/C(=O)C(CCC(=O)O)C(=O)/C=C/c2ccc(O)c(OC)c2)ccc1O [Compound 7, (6E)-7-(3-methoxy-4-hydroxyphenyl)-4-[(2E)-3-(3-methoxy-4-hydroxyphenyl)prop-2-enoyl]-5-oxohept-6-enoic acid] | 79% | 2 | 75% | 25% | 12.22 (2) | 21.61 (5) | 29.98 (4) | 34.92 (9) | ~5 | 8.37 | 9.39 | 12.2 | negatively charged | 28.29 (5) | 36.51 (6) | 6.68 | [Ga(H2L)2]^+ | [Ga(H2L)2]^+ ** | 15.3 | – | –
2 | O=C(O)CCC(C(=O)/C=C/c1ccc(O)cc1)C(=O)/C=C/c1ccc(O)cc1 [Compound 6, (6E)-7-(4-hydroxyphenyl)-4-[(2E)-3-(4-hydroxyphenyl)prop-2-enoyl]-5-oxohept-6-enoic acid] | 73% | 4 | 75% | 25% | 11.42 (2) | 21.12 (6) | 29.76 (7) | 34.62 (5) | ~5 | 8.64 | 9.7 | 11.4 | negatively charged | 27.79 (5) | 34.09 (5) | 6.67 | – | – | 14.0 | – | –
3 | COc1cc(/C=C/C(O)=C/C(C)=O)ccc1OCCCBr [Compound 2, (3Z,5E)-6-[4-(3-bromopropoxy)-3-methoxyphenyl]-4-hydroxyhexa-3,5-dien-2-one] | 83% | 1 | 12% | 88 * % | 10.903 (8) | – | – | – | 10.9 | – | – | – | – | – | – | 8.129 (9) | [Ga(L)3] | [Ga(L)3] | 13.1 | 8.129 (9) | log β 120 overall stability constant (Ga^3+) ([4]; 298 K, HypSpec): 15.185 (4); log β 130 overall stability constant (Ga^3+) ([4]; 298 K, HypSpec): 20.45 (3); logK12 apparent formation constant (Ga^3+, M:L 1:2) ([4]; 298 K): 15.185; logK13 apparent formation constant (Ga^3+, M:L 1:3) ([4]; 298 K): 20.45
4 | (3Z,5E)-4-hydroxy-6-(3-methoxy-4-methylphenyl)hexa-3,5-dien-2-one [Compound 1] | 77% | 3 | 4% | 96% | 10.212 (2) | 18.509 (3) | – | – | – | – | – | – | – | – | – | 7.38 (3) | [Ga(HL)3] | [Ga(L)3]^3− | 19.0 | 11.78 (4) | pKa1 [3, 9]: 8.297 (5); pKa2 [3, 9]: 10.212 (2) *; log β 111 overall stability constant (Ga^3+) ([4]; 298 K, HypSpec): 17.59 (3); log β 120 overall stability constant (Ga^3+) ([4]; 298 K, HypSpec): 20.30 (5); log β 122 overall stability constant (Ga^3+) ([4]; 298 K, HypSpec): 34.77(3); log β 130 overall stability constant (Ga^3+) ([4]; 298 K, HypSpec): 28.37 (7); log β 133 overall stability constant (Ga^3+) ([4]; 298 K, HypSpec): 49.7 (4); logK12 apparent formation constant (Ga^3+, M:L 1:2) ([4]; 298 K): 14.35 (3); logK13 apparent formation constant (Ga^3+, M:L 1:3) ([4]; 298 K): 19.1 (4)
